Data as given in patent EP0326331B1, “Substituted quinolines and cinnolines” (Dow AgroSciences LLC, priority 1988, dated 1989).

Assays:
Type in all cases: in vivo
[1] = test system: southern armyworm (Spodopetra eridania Cramer); assay: Mite/insect screen, SAW; details: Spodoptera eridania, foliar, percent mortality, foliar spray on squash, read-out: SAW RESULTS %; for mortality at 200 ppm: rate 200 ppm; for mortality at 400 ppm: rate 400 ppm
How it was run: (§1)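 First, each compound was dissolved in an emulsifier-containing acetone/alcohol mixture and diluted with water. Next, leaves were sprayed until runoff and left to dry for an hour. For southern armyworm, two excised uninfested leaves went into a Petri dish with larvae; percent mortality followed standard exposure periods.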

[2] = test system: Pyricularia oryzae (rice blast); assay: whole plant or invertebrate; details: Pyricularia oryzae, foliar, read-out: RICE BLAST, Test 1, foliar spray on rice; disease control rating at 400 ppm / 100 ppm
corn rootworm = assay: Mite/insect screen, CRW; details: percent mortality, read-out: CRW RESULTS %; for mortality at 12 ppm: CRW rate 12.00 ppm; for mortality at 24 ppm: CRW rate 24.00 ppm
How it was run: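 Stock in acetone:alcohol 1:1 + TOXIMUL R 23 g/L + TOXIMUL S 13 g/L; diluted with water to indicated concentrations; mortality (%) after standard exposure.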

[3] = test system: Erysiphe graminis tritici (powdery mildew); assay: Test 1 greenhouse foliar spray screen, powdery mildew on wheat; details: Blumeria graminis, foliar, Test 1, foliar spray on wheat; disease control rating at 400 ppm / 100 ppm; read-out: POWD MDEW
[4] = test system: melon aphids (Aphis gossypii Glover); assay: Mite/insect screen, MA; details: Aphis gossypii, foliar, percent mortality, foliar spray on squash, read-out: MA RESULTS %; for mortality at 200 ppm: rate 200 ppm; for mortality at 400 ppm: rate 400 ppm
How it was run: as §1

[5] = test system: Pseudoperonospora cubensis (downy mildew); assay: Test 1 greenhouse foliar spray screen, downy mildew on squash; details: Pseudoperonospora cubensis, foliar, Test 1, foliar spray on squash; disease control rating at 400 ppm / 100 ppm; read-out: DOWN MDEW
[6] = test system: Puccinia recondita tritici (leaf rust); assay: Test 1 greenhouse foliar spray screen, leaf rust on wheat; details: Puccinia recondita, foliar, Test 1, foliar spray on wheat; disease control rating at 400 ppm / 100 ppm
[7] = test system: Twospotted spider mites (Tetranychus urticae Koch); assay: Mite/insect screen, SM; details: Tetranychus urticae, foliar, percent mortality, foliar spray on squash, read-out: SM RESULTS %; for mortality at 200 ppm: rate 200 ppm; for mortality at 400 ppm: rate 400 ppm
How it was run: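 Read-out: percent mortality after standard exposure periods. Test solutions were water dilutions of compound dissolved in acetone/alcohol (50:50) with emulsifier blends; leaves were sprayed to runoff on both surfaces and air-dried for one hour before exposure.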

[8] = test system: Botrytis cinerea (gray mold); assay: Test 1 greenhouse foliar spray screen, gray mold on grape berries; details: Botrytis cinerea, foliar; Test 1, spray on grape berries; disease control rating at 400 ppm / 100 ppm

Structure (SMILES): FC(F)(F)c1ccc2c(OCCc3ccccc3)ccnc2c1 [Example 239, 4-(2-phenylethoxy)-7-(trifluoromethyl)quinoline]
- mortality at 200 ppm [1]: 0%
- mortality at 400 ppm [1]: 0%
- pest or weed control at 400 ppm [2]: 90 to 100%
- mortality at 12 ppm (corn rootworm): 0%
- mortality at 24 ppm (corn rootworm): 0%
- pest or weed control at 400 ppm [3]: 90 to 100%
- mortality at 200 ppm [4]: 0%
- mortality at 400 ppm [4]: 0%
- pest or weed control at 400 ppm [5]: 90 to 100%
- pest or weed control at 400 ppm [6]: 90 to 100%
- mortality at 200 ppm [7]: 0%
- mortality at 400 ppm [7]: 0%
- pest or weed control at 400 ppm [8]: 0 to 19%

Structure (SMILES): Fc1ccc(CCOc2ccnc3c(Cl)cccc23)cc1 [Example 240, 8-chloro-4-[2-(4-fluorophenyl)ethoxy]quinoline]
- mortality at 400 ppm [1]: 0%
- pest or weed control at 400 ppm [2]: 20 to 89%
- mortality at 24 ppm (corn rootworm): 0%
- pest or weed control at 400 ppm [3]: 0 to 19%
- mortality at 400 ppm [4]: 0%
- pest or weed control at 400 ppm [5]: 0 to 19%
- pest or weed control at 400 ppm [6]: 90 to 100%
- mortality at 400 ppm [7]: 0%
- pest or weed control at 400 ppm [8]: 0 to 19%

Structure (SMILES): CC(C)(C)c1ccc(CCCOc2ccnc3c(F)cccc23)cc1 [Example 241, 8-fluoro-4-[3-[4-(t-butyl)phenyl]propoxy]quinoline]
- mortality at 400 ppm [1]: 0%
- pest or weed control at 400 ppm [2]: 0 to 19%
- mortality at 24 ppm (corn rootworm): 0%
- pest or weed control at 400 ppm [3]: 0 to 19%
- mortality at 400 ppm [4]: 0%
- pest or weed control at 400 ppm [5]: 0 to 19%
- pest or weed control at 400 ppm [6]: 0 to 19%
- mortality at 400 ppm [7]: 0%
- pest or weed control at 400 ppm [8]: 0 to 19%

Structure (SMILES): Clc1ccc(CCCOc2ccnc3c(Cl)cccc23)cc1 [Example 242, 8-chloro-4-[3-(4-chlorophenyl)propoxy]quinoline]
- mortality at 200 ppm [1]: 0%
- mortality at 400 ppm [1]: 0%
- pest or weed control at 400 ppm [2]: 0 to 19%
- mortality at 12 ppm (corn rootworm): 0%
- mortality at 24 ppm (corn rootworm): 0%
- pest or weed control at 400 ppm [3]: 0 to 19%
- mortality at 200 ppm [4]: 0%
- mortality at 400 ppm [4]: 0%
- pest or weed control at 400 ppm [5]: 0 to 19%
- pest or weed control at 400 ppm [6]: 0 to 19%
- mortality at 200 ppm [7]: 0%
- mortality at 400 ppm [7]: 0%
- pest or weed control at 400 ppm [8]: 0 to 19%

Structure (SMILES): Fc1cccc2c(OCC=Cc3ccccc3)ccnc12 [Example 243, 8-fluoro-4-[(3-phenyl-2-propenyl)oxy]quinoline]
- mortality at 400 ppm [1]: 0%
- pest or weed control at 400 ppm [2]: 0 to 19%
- mortality at 24 ppm (corn rootworm): 0%
- pest or weed control at 400 ppm [3]: 0 to 19%
- mortality at 400 ppm [4]: 0%
- pest or weed control at 400 ppm [5]: 0 to 19%
- pest or weed control at 400 ppm [6]: 0 to 19%
- mortality at 400 ppm [7]: 0%
- pest or weed control at 400 ppm [8]: 0 to 19%

Structure (SMILES): Cc1cc(OCCC2CCCCC2)c2c(Cl)ccc(C)c2n1 [Example 248, 5-chloro-4-(2-cyclohexylethoxy)-2,8-dimethylquinoline]
- mortality at 400 ppm [1]: 0%
- pest or weed control at 400 ppm [2]: 0 to 19%
- mortality at 24 ppm (corn rootworm): 0%
- pest or weed control at 400 ppm [3]: 20 to 89%
- mortality at 400 ppm [4]: 0%
- pest or weed control at 400 ppm [5]: 0 to 19%
- pest or weed control at 400 ppm [6]: 0 to 19%
- mortality at 400 ppm [7]: 0%
- pest or weed control at 400 ppm [8]: 0 to 19%

Structure (SMILES): Cc1cc(OCCC2CCCCC2)c2cc(F)ccc2n1 [Example 249, 6-fluoro-4-(2-cyclohexylethoxy)-2-methylquinoline]
- mortality at 400 ppm [1]: 0%
- pest or weed control at 400 ppm [2]: 0 to 19%
- mortality at 24 ppm (corn rootworm): 0%
- pest or weed control at 400 ppm [3]: 0 to 19%
- mortality at 400 ppm [4]: 0%
- pest or weed control at 400 ppm [5]: 0 to 19%
- pest or weed control at 400 ppm [6]: 0 to 19%
- mortality at 400 ppm [7]: 0%
- pest or weed control at 400 ppm [8]: 0 to 19%
